Laboratory results from paper PMC4447455, “Towards Elucidating Carnosic Acid Biosynthesis in Lamiaceae: Functional Characterization of the Three First Steps of the Pathway in Salvia fruticosa and Rosmarinus officinalis” (PLoS ONE, 2015).

Columns and labels:
SfKSL [1] = target: T1, SfKSL (Salvia fruticosa, UniProt A0A0C5QH30); assay: coupled assay with SfCPS, GC-MS; NMR of product from yeast; assay type: biochemical; conditions: CDP formed in situ by SfCPS from 200 uM GGDP; pH 7.0, 20 mM MgCl2, 0.2 mM MnCl2, room temperature overnight
T1 construct: gene KSL; pseudomature SfKSLm without predicted N-terminal transit peptide (49 residues); full ORF 1755 bp; lacks gamma domain
T1 sequence (A0A0C5QH30 50-584): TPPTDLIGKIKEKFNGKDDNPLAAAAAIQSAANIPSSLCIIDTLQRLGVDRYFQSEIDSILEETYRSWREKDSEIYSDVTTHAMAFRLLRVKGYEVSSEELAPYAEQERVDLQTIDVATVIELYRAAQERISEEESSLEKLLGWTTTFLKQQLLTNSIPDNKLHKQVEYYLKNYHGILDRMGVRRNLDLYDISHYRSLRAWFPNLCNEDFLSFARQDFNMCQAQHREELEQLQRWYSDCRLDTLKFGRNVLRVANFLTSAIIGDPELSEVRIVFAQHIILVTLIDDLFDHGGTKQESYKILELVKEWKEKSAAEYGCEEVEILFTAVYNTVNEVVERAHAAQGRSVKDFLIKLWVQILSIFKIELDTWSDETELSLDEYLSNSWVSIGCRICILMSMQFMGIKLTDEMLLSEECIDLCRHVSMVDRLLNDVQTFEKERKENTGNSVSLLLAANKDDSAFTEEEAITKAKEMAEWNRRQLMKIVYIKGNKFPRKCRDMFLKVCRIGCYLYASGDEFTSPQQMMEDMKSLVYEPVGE

SfFS = target: T2, SfFS (Salvia fruticosa, UniProt A0A0C5QRZ2); assay: yeast co-expression, GC-MS; assay type: cell-based; conditions: co-expressed SfCPS, SfKSL, PtCPR2; also shown in N. benthamiana
T2 construct: gene CYP76AH24; P450 ORF in pWTDH3, expressed in S. cerevisiae AM104 with SfCPSm, SfKSLm and poplar reductase PtCPR2; also N. benthamiana with AtCPR1
T2 sequence (A0A0C5QRZ2 1-492): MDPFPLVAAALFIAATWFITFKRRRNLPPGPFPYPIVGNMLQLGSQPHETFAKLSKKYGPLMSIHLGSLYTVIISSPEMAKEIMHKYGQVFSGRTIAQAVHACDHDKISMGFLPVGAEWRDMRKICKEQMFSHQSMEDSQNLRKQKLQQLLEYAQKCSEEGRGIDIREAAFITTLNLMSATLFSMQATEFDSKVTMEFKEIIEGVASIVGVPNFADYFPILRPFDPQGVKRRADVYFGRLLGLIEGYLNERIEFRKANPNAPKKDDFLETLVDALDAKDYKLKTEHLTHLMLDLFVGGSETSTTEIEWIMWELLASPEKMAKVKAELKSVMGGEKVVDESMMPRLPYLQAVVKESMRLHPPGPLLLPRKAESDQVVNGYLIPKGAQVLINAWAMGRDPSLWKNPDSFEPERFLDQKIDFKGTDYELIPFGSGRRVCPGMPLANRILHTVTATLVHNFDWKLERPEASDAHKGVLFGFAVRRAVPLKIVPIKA

RoFS1 = target: T3, RoFS1 (Salvia rosmarinus, UniProt A0A0C5Q4Y6); assay: yeast co-expression, GC-MS; assay type: cell-based; conditions: co-expressed RoCPS1m, RoKSL1f, PtCPR2; also shown in N. benthamiana
T3 construct: gene CYP76AH22; P450 ORF in pWTDH3, expressed in S. cerevisiae AM113 with RoCPS1m, RoKSL1f and poplar reductase PtCPR2; also N. benthamiana with SfCPS, SfKSL, AtCPR1
T3 sequence (A0A0C5Q4Y6 1-493): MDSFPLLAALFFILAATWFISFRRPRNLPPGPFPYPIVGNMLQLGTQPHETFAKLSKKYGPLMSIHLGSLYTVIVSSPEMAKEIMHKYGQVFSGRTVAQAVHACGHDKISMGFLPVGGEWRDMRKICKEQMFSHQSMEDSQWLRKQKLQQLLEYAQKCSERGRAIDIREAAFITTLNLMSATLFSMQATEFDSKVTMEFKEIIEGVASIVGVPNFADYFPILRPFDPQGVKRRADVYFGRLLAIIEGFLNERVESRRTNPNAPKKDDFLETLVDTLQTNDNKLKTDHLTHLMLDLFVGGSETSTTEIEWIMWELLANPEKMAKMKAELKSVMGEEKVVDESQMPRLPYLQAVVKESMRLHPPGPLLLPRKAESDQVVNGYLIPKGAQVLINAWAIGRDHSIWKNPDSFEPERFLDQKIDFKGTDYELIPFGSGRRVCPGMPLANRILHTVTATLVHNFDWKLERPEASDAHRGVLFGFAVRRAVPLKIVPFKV

RoFS2 = target: T4, RoFS2 (Salvia rosmarinus, UniProt A0A0C5QEW3); assay: yeast co-expression, GC-MS; assay type: cell-based; conditions: co-expressed RoCPS1m, RoKSL1f, PtCPR2; also shown in N. benthamiana
T4 construct: gene FS2; P450 ORF in pWTDH3, expressed in S. cerevisiae AM113 with RoCPS1m, RoKSL1f and poplar reductase PtCPR2; also N. benthamiana with SfCPS, SfKSL, AtCPR1
T4 sequence (A0A0C5QEW3 entry or part of it): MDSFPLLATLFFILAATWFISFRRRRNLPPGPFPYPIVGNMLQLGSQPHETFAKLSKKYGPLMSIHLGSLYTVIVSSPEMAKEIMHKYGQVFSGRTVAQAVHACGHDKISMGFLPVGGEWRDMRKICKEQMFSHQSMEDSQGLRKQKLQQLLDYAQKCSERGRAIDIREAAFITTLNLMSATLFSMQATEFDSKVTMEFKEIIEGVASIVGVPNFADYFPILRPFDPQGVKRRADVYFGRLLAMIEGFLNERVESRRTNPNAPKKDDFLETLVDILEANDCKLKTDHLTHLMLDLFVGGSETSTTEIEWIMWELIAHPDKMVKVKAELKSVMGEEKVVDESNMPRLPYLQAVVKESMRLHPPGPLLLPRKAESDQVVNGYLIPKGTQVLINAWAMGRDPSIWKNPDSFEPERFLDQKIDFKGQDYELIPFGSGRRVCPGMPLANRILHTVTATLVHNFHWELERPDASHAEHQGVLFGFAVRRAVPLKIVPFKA

SfCPS = target: T5, SfCPS (Salvia fruticosa, UniProt A0A0A7RQ84); assay: GC-MS of dephosphorylated product (copalol); assay type: biochemical; conditions: pH 7.0, 20 mM MgCl2, 0.2 mM MnCl2, 60 uM GGDP, room temperature overnight
T5 construct: gene CDS; pseudomature SfCPSm without predicted N-terminal transit peptide (30 residues); full ORF 2391 bp
T5 sequence (A0A0A7RQ84 entry or part of it): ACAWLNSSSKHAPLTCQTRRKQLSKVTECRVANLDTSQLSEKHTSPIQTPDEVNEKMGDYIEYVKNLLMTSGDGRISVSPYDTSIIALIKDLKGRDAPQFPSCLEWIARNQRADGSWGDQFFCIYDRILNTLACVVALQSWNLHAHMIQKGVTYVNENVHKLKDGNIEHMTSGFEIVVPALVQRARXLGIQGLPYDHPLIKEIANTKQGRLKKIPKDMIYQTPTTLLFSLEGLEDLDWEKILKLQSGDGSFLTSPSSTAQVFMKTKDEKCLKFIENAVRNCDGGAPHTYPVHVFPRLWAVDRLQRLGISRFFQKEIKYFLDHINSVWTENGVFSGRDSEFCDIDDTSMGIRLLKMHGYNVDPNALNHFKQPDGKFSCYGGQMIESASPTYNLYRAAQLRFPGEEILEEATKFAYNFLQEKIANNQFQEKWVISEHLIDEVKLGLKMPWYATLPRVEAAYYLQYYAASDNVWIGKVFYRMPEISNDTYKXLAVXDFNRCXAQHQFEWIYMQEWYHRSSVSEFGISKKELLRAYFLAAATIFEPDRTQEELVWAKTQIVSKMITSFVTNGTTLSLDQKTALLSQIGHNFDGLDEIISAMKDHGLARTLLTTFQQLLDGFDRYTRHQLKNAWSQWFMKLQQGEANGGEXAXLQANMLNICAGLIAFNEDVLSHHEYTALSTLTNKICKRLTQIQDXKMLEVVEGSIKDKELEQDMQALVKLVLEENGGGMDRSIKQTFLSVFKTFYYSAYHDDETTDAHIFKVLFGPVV

SfKSL [2] = target: T1, SfKSL; assay: coupled assay with SfCPS, GC-MS of product; assay type: biochemical; conditions: CDP formed in situ by SfCPS from 200 uM GGDP; pH 7.0, 20 mM MgCl2, 0.2 mM MnCl2, room temperature overnight

CC(C)C1=CCC2=C(CC[C@H]3C(C)(C)CCC[C@]23C)C1 [miltiradiene]
coupled assay with SfCPS, GC-MS; NMR of product from yeast (SfKSL [1]): revealed a peak, which most closely corresponded to miltiradiene

CC(C)c1cc2c(cc1O)[C@@]1(C)CCCC(C)(C)[C@@H]1CC2 [ferruginol]
yeast co-expression, GC-MS (SfFS): GC-MS revealed the formation of ferruginol in all three strains analyzed
yeast co-expression, GC-MS (RoFS1): GC-MS revealed the formation of ferruginol in all three strains analyzed
yeast co-expression, GC-MS (RoFS2): GC-MS revealed the formation of ferruginol in all three strains analyzed

CC(C)=CCC/C(C)=C/CC/C(C)=C/CC/C(C)=C/COP(=O)(O)OP(=O)(O)O [GGDP]
GC-MS of dephosphorylated product (copalol) (SfCPS): His-tagged SfCPS protein was affinity purified and incubated with GGDP

C=C1CC[C@H]2C(C)(C)CCC[C@]2(C)[C@H]1CC/C(C)=C/COP(=O)(O)OP(=O)(O)O [CDP]
GC-MS of dephosphorylated product (copalol) (SfCPS; detected as copalol after alkaline phosphatase): identify the dephosphorylated product of the SfCPS catalyzed reaction as copalol
coupled assay with SfCPS, GC-MS of product (SfKSL [2]): simultaneously with SfCPS in order to provide the necessary CDP substrate
